Experimental data from patent publication US5493007A, “Platelet aggregation inhibitors having high specificity for GPIIBIIIA” (Genentech, Inc., priority 1994, dated 1996).
Where “and” joins values, the source holds several entries; their conditions need not be identical. Identical values can stand only once. Like-named read-outs stand apart in the source and are kept apart here. Where a SMILES comes first, the peptide text is derived from it. Bridges are numbered along the chain shown (N, C = ends). [ ]: non-standard residue; d: D form. Aad = N[C@@H](CCCC(=O)O)C(=O)O; Pen = CC(C)(S)[C@H](N)C(=O)O; dOrn = NCCC[C@@H](N)C(=O)O; Orn = NCCC[C@H](N)C(=O)O; Ava = NCCCCC(=O)O

Legend:
[1] = biological target: human platelet rich plasma (PRP) (Homo sapiens, UniProt P05106+P08514); assay: In Vitro Human Platelet Aggregation Assay; type: cell-based; conditions: for platelet aggregation inhibition potency, result in words: human platelet aggregation in vitro
Method: Platelet aggregation assays are performed in human platelet rich plasma (PRP). Fifty milliliters of whole human blood (9 parts) is drawn on 3.6% sodium citrate (1 part) from a donor who has not taken aspirin or related medications for at least two weeks. The blood is centrifuged at 160×g for 10 minutes at 22° C. and allowed to stand for 5 minutes after which the PRP is decanted. Platelet poor plasma (PPP) is isolated from the remaining blood after centrifugation at 2000×g for 25 minutes. The platelet count of the PRP is diluted to about 300,000 platelets per microliter with PPP.
A 225 μl aliquot of PRP plus 25 μl of either a dilution of the test inhibitor sample or a control (PBS) is incubated for 5 minutes in a Chrono-log Whole Blood Aggregometer at 25° C. An aggregating agent (collagen, 1 μg/ml; U46619, 100 ng/ml; or ADP, 17 μM) is added and the transmission is recorded.

[2] = biological target: GP IIb IIIa (Homo sapiens, UniProt P05106+P08514); assay: GP IIb IIIa -von Willebrand factor (vWF) ELISA Assay; type: binding; design: GP IIb IIIa, prepared by the method of Fitzgerald et al; from tissue
Method: Microtiter plates are coated with 1.0 μg/ml GP IIb IIIa, prepared by the method of Fitzgerald et al., (Anal. Biochem. 151:169-177 [1985]) and allowed to incubate overnight in coat buffer. The plates are then washed three times in wash buffer (0.05% Tween 20 in PBS) and 150 μl of assay buffer is added and allowed to incubate for 1-2 hours at room temperature on plate shaker. The plates are washed three times and 50 μl of 2x inhibitor in assay buffer (Assay buffer: 0.5% BSA/50 mM Tris, 100 mM NaCl, 1.0 mM CaCl2, 1.0mM MgCl2, 1.0 mM MnCl2; coat buffer is the same but without BSA) is added. Fifty μl of 4.0 μg/ml vWF (prepared as described by Ledford et al., Thrombosis and Haemostasis, 64(4): 569-575 [1990]) in assay buffer is then added and allowed to incubate for one hour at room temperature on plate-shaker. The plates are washed three times and the antibody mixture is added (1:5000 of mouse anti-vWF and 1:5000 of rabbit-anti-mouse-Fc-HRP, both commercially available) in assay buffer and incubated for 1 hour at room temperature on plate-shaker. Plates are again washed three times and 100 μl of substrate solution (10 mg OPD, 6.5 μl H2 O2, 15 ml phosphate citrate buffer) is added and incubated at room temperature. The color change of OPD/H2 O2 reagent is read at 492 nm with a 405 nm reference wavelength on the filter photometer.

[3] = biological target: T1, Vitronectin Receptor (αvβ3) (Homo sapiens, UniProt P05106+P06756); assay: Human Vitronectin-Vitronectin Receptor (αvβ3) ELISA Assay; type: binding; conditions: purified human αvβ3, vitronectin-coated plates; read-out: ELISA IC50 Vitronectin VnR
T1 construct: Human vitronection receptor (VnR) is purified from human placenta; from tissue; host or cells: human placenta
Excerpt: Human vitronectin (Vn) is isolated from human plasma and purified by affinity chromatography by the method of Yatohgo et. al., (Cell Structure and Function 13:281-292 [1988]).
Human vitronection receptor (VnR) is purified from human placenta by the method of Pytela et al., (Methods Enzymol., 144:475 [1987]). Alternatively the αvβ3 receptor can be purified from some cell lines (e.g., human embryonic kidney 293 cells) transfected with DNA sequences for both the αv and β3 subunits. The subunits are purified by employing octylglucoside extraction followed by Con-A, Heparin-Sepharose, and S-300 Chromatography.
Anti-GP IIb IIIa monoclonal antibodies specific for human GP IIIa are prepared by the method of Newman et al. (Blood, 65:227-232 [1985]), or a similar procedure. This mouse Mab is specific for the β3 subunit of the vitronectin receptor.
Rabbit Fab 2 anti-mouse Fc fragment horse radish peroxidase conjugate (anti-MuFc HRP) is obtained from PelFreeze (cat. no. 715305-1).
Maxisorp microtiter plates are coated with 2 μg/ml human vitronectin dissolved in PBS ([…]) and stored overnight at 4° C. The plates are washed two times with PBS-0.05% Tween-20 (wash buffer) and blocked by incubating with about 150 μl/well of assay buffer (1%, BSA [RIA grade or better] in 50 mM Tris-HCl, 100 mM NaCl, 1 mM MgCl2, CaCl2, MnCl2 pH 7.4) for 60 minutes. Dilutions of standards are prepared and putative inhibitors (Table 3) are dissolved in assay buffer. The blocked plates are emptied and 25 μl/well of inhibitor or standard solution is added to each well. Twenty-five μl of a 30 μg/ml solution of purified αvβ3 in assay buffer is pipetted into the coated plate. The final concentration of receptor in the assay well is about 15 μg/ml. The plate is incubated on a shaker for 60 minutes. Meanwhile, for each microtite plate, 6 ml buffer solution containing 1.5 μg/ml of mouse monoclonal antibody specific for β3 is prepared. To this solution is added μl of the secondary antibody, which is anti-mouse-Fc-HRP antibody conjugate. For example, for one plate, prepare 6 ml of a 1.5 μg/ml mouse Mab solution to which is added 1 μl of anti-mouse-Fc-HRP antibody stock, (this represents a 1:6000 dilution of the antibody - HRP conjugate). This mixture is allowed to incubate during the receptor-inhibitor incubation. The assay plates are washed 4 times with PBS-Tween and 50 μl/well of the antibody mixture is then pipetted into the plate for a 60 minute incubation. The plate is washed 4 times and the color reaction is developed with 50 μl/well of 0.67 mg/ml o-phenyldiamine in PBS containing 0.012% H2 O2. Alternatively, 16 mM citric acid, 50 mM Na2 PO4 at pH 5.0 can be used as a substrate buffer. The reaction is stopped with 50 μl/well 1M H2 SO4. The plates are read at 492-405 nm and the data analyzed by four-parameter fit.

[4] = tested on: New Zealand White rabbits; assay: Rabbit cutaneous bleeding time (CBT); conditions: for Rabbit BT Ratio: Example 1, at the % P.A. inhibition given
Method: Unanesthetized male New Zealand White rabbits (2.5-3.5 kg) are placed in a standard rabbit restrainer. Ears are shaved and a 20 G Teflon catheter with flowswitch (Viggo) is placed in the medial artery, flushed with saline and locked with 1 ml of heparinized saline (10 m/ml). A 22 G catheter (Abbott) fitted with an injection cap (Medex) is placed in the marginal vein of the same ear. Saline or a GP IIb IIIa receptor antagonist, at a concentration of 1 to 3 mg/ml, is infused via the venous catheter. At time 0, 41% of the dose is given as a bolus over 2 minutes. The remainder is continuously infused over the following 60 minutes. Blood samples (3.2 ml) are collected into syringes without needles via the arterial catheter at -10, -5, 10, 45, and 60 minutes. The first 0.5 ml is discarded and the following 2.7 ml is collected directly into a syringe containing 0.3 ml of 3.8% sodium citrate. The sample is divided into 1.5 ml aliquots and centrifuged at room temperature for 5 seconds at 12,000 G. The resulting platelet rich plasma (PRP) is used to measure ex-vivo platelet aggregation (XPA). At -10 and 60 minutes an additional 1 cml sample is drawn for an automated blood count (Baker instruments). Catheters are flushed and locked after every sample.
CBT is measured at -10, -5, 10, and 45 minutes on the opposite ear, using an automated incision-making instrument (Surgicutt®, ITD). An incision (5mm×1 mm deep) is made on the dorsal surface of the ear at sites not supplied by major blood vessels. Blood is blotted away with absorbent paper placed near the incision site, every 2 to 15 seconds, to a maximum of 15 minutes. Cessation of bleeding is defined as no blood forming at the incision site for 15 seconds. The range of duplicate CBT in 40 normal rabbits was 0.88 to 3.38 minutes.

[5] = human PRP, read-out: Human Platelet Aggregation IC50
[6] = GP IIb IIIa-coated plates, vWF, read-out: ELISA IC50 GPIIb IIIa vWF

GP IIb IIIa, sequence (P08514 32-887 limits assumed): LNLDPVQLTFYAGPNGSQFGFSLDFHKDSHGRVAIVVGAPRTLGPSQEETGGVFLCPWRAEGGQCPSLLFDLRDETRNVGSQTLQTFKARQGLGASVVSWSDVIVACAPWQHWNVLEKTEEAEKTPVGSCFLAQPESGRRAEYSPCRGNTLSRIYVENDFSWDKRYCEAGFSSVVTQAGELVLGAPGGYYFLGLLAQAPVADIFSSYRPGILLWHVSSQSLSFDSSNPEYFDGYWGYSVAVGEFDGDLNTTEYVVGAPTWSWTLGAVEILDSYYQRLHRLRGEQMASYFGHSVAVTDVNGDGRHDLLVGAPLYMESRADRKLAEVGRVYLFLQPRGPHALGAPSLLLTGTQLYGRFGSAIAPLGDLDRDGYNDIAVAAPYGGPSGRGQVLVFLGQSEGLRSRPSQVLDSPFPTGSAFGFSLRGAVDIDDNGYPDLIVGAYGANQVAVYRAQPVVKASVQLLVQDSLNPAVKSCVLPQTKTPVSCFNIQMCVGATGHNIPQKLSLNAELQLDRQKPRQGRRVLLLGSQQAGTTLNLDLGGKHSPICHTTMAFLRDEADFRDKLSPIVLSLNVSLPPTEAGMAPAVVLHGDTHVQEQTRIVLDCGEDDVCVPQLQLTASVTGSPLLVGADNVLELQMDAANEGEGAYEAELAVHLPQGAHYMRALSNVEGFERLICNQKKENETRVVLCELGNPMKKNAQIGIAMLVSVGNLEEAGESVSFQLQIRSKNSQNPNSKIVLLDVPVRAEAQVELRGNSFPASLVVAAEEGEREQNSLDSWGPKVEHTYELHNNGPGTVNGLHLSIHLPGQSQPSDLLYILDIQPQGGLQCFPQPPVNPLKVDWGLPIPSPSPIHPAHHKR
GP IIb IIIa, sequence (P08514 891-1039 partner limits assumed): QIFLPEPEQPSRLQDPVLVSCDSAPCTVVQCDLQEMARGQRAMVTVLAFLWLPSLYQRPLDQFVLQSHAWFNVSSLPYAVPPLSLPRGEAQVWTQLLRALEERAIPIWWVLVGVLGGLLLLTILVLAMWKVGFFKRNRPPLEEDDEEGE
GP IIb IIIa, sequence (P05106 27-788): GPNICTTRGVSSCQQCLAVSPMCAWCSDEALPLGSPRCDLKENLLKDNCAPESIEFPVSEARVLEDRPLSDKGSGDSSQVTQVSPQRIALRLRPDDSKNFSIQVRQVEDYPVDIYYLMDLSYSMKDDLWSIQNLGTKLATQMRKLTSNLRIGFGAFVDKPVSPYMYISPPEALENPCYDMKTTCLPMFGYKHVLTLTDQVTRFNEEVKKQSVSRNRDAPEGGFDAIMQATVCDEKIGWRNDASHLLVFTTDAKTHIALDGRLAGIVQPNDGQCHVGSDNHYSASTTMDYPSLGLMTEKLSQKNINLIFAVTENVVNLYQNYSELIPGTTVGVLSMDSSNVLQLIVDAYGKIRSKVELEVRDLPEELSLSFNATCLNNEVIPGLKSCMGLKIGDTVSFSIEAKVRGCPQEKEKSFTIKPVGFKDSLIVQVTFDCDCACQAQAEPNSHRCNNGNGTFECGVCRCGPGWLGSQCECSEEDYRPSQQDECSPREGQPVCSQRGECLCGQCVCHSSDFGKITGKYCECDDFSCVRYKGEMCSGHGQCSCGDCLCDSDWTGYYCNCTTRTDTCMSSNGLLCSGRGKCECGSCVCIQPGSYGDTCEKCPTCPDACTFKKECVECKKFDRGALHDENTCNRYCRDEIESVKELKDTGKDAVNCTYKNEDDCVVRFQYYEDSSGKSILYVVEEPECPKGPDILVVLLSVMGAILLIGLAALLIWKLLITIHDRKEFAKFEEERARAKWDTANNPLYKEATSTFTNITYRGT
T1 sequence (P06756 31-889 limits assumed): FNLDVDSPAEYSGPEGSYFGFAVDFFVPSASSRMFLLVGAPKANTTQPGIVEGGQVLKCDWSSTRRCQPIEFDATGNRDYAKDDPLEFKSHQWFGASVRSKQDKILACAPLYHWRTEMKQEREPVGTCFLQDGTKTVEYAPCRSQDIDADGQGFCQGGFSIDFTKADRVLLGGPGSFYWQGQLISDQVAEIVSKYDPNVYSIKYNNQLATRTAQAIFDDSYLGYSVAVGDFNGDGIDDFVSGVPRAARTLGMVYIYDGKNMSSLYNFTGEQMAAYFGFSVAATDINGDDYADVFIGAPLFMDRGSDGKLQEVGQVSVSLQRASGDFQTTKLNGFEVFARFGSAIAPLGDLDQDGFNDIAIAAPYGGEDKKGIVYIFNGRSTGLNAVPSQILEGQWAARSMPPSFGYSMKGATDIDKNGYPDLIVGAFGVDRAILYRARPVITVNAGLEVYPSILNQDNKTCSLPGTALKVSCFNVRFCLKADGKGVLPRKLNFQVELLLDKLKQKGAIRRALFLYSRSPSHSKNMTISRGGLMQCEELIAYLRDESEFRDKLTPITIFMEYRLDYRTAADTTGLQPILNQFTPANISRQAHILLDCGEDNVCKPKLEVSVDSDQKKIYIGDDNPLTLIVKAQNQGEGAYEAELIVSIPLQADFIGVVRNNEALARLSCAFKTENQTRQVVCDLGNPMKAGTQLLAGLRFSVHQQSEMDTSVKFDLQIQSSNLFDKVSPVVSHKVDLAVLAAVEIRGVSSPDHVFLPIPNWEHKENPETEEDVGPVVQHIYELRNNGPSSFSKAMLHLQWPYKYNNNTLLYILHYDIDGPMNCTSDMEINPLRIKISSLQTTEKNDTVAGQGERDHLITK
T1 sequence (P06756 891-1048 partner limits assumed): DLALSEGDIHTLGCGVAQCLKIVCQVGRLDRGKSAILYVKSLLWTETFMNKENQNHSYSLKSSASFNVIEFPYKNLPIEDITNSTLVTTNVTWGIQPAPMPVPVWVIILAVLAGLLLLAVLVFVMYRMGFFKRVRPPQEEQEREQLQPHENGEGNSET
T1 sequence (P05106 27-788): as the sequence (P05106 27-788) above
human platelet rich plasma (PRP), sequence (P08514 32-1039): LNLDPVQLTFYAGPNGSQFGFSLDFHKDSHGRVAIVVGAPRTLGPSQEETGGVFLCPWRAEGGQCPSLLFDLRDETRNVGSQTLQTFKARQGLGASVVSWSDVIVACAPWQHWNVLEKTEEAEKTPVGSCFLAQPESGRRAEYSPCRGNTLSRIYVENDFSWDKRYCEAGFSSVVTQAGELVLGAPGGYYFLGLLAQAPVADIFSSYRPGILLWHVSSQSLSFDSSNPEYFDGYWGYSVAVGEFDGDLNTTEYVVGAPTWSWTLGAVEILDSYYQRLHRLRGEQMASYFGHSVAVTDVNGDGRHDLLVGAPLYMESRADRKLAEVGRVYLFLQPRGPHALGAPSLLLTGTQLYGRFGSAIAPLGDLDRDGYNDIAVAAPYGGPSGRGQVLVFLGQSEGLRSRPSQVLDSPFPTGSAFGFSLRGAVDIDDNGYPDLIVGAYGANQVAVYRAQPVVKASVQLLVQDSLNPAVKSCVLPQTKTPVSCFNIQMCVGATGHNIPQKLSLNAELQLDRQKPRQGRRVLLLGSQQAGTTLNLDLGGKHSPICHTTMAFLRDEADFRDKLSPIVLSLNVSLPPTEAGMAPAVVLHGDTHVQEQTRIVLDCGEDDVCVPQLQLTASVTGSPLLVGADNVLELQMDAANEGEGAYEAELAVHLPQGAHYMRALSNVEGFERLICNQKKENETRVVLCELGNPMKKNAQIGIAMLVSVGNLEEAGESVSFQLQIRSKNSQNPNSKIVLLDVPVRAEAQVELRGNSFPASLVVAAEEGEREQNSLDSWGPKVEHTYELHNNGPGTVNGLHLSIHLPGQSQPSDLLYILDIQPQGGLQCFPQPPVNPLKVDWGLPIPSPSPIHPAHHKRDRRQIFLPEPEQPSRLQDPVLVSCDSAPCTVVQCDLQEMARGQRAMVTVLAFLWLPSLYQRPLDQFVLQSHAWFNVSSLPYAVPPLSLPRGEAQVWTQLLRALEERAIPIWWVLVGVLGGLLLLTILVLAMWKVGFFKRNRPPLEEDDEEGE
human platelet rich plasma (PRP), sequence (P05106 27-788): as the sequence (P05106 27-788) above

| SMILES | IC50 [1, 5] | IC50 [2, 6] | IC50 [3] | Rabbit BT Ratio [4] | also measured |
| --- | --- | --- | --- | --- | --- |
| N=C(N)NCCC[C@@H]1NC(=O)[C@@H](Cc2ccc(O)cc2)NC(=O)C(CCCCN)SC[C@@H](C(=O)O)NC(=O)[C@H](CC(=O)O)NC(=O)CNC1=O (single isomer, unassigned) [9/10, cyclo-S-2-L-(6-aminocaproyl)-Lys--dTyr--Arg--Gly--Asp--Cys--OH] | 498 nM | 0.785 nM | 9.6 nM | 8.17 | – |
| N=C(N)NCCC[C@@H]1NC(=O)[C@@H](Cc2ccc(O)cc2)NC(=O)C(CCCCN)SC[C@@H](C(=O)O)NC(=O)[C@H](CC(=O)O)NC(=O)CNC1=O (single isomer, unassigned) [9/11, cyclo-S-2-L-(6-aminocaproyl)-Lys--dTyr--Arg--Gly--Asp--Cys--OH] | 3180 nM | 6.95 nM | 11.2 nM | – | – |
| N=C(N)NCCC[C@H](NC(=O)[C@@H]1CSCC(=O)N[C@H](Cc2ccc(O)cc2)C(=O)N[C@@H](CCCNC(=N)N)C(=O)NCC(=O)N[C@@H](CC(=O)O)C(=O)N1)C(N)=O [7/1, cyclo-S-acetyl-dTyr--Arg--Gly--Asp--Cys--Arg--NH2] ({CH2CO}-[dY]RGDCR-NH2; thioether N-5) | 80 nM and 83 nM | – | 49 nM | 1.7 | platelet aggregation inhibition potency, result in words [1]: equipotent; IC50 ([2]; unit inferred, read-out: IC50 in the GPIIb IIIa -vWF ELISA): 13.8 nM; increase in cutaneous bleeding time ([4]; dosed to 100% inhibition of platelet aggregation): 1.17 times |
| N=C(N)NCCC[C@@H]1NC(=O)[C@@H](Cc2ccc(O)cc2)NC(=O)CSC[C@@H](C(=O)N[C@H](CCCNC(=N)N)C(N)=O)NC(=O)[C@H](CC(=O)O)NC(=O)CNC1=O [7/2, cyclo-S-acetyl-dTyr--Arg--Gly--Asp--Cys--dArg--NH2] ({CH2CO}-[dY]RGDC[dR]-NH2; thioether N-5) | – | 2.93 nM | 22 nM | – | – |
| N=C(N)NCCC[C@@H]1NC(=O)[C@@H](Cc2ccc(O)cc2)NC(=O)CSC[C@@H](C(=O)N[C@@H](CCCCN)C(N)=O)NC(=O)[C@H](CC(=O)O)NC(=O)CNC1=O [7/3, cyclo-S-acetyl-dTyr--Arg--Gly--Asp--Cys--Lys--NH2] ({CH2CO}-[dY]RGDCK-NH2; thioether N-5) | 320 nM | 15.9 nM | 60 nM | 1.95 | increase in cutaneous bleeding time ([4]; dosed to 95% inhibition of platelet aggregation): 1.95 times |
| N=C(N)NCCC[C@@H]1NC(=O)[C@@H](Cc2ccc(O)cc2)NC(=O)CSC[C@@H](C(=O)N[C@H](CCCCN)C(N)=O)NC(=O)[C@H](CC(=O)O)NC(=O)CNC1=O [7/4, cyclo-S-acetyl-dTyr--Arg--Gly--Asp--Cys--dLys--NH2] ({CH2CO}-[dY]RGDC[dK]-NH2; thioether N-5) | – | 1.56 nM | 17 nM | – | – |
| N=C(N)NCCC[C@@H]1NC(=O)[C@@H](Cc2ccc(O)cc2)NC(=O)CSC[C@@H](C(=O)N[C@@H](CCCN)C(N)=O)NC(=O)[C@H](CC(=O)O)NC(=O)CNC1=O [7/5, cyclo-S-acetyl-dTyr--Arg--Gly--Asp--Cys--Orn--NH2] ({CH2CO}-[dY]RGDC[Orn]-NH2; thioether N-5) | – | 6.84 nM | 45 nM | 1.26 | – |
| N=C(N)NCCC[C@@H]1NC(=O)[C@@H](Cc2ccc(O)cc2)NC(=O)CSC[C@@H](C(=O)N[C@H](CCCN)C(N)=O)NC(=O)[C@H](CC(=O)O)NC(=O)CNC1=O [7/6, cyclo-S-acetyl-dTyr--Arg--Gly--Asp--Cys--dOrn--NH2] ({CH2CO}-[dY]RGDC[dOrn]-NH2; thioether N-5) | 1180 nM | 1.92 nM | 55 nM | – | – |
| N=C(N)NCCC[C@H](NC(=O)[C@H](Cc1ccc(O)cc1)NC(=O)[C@@H]1CSCC(=O)N[C@H](Cc2ccc(O)cc2)C(=O)N[C@@H](CCCNC(=N)N)C(=O)NCC(=O)N[C@@H](CC(=O)O)C(=O)N1)C(N)=O [7/7, cyclo-S-acetyl-dTyr--Arg--Gly--Asp--Cys--Tyr--Arg--NH2] ({CH2CO}-[dY]RGDCYR-NH2; thioether N-5) | – | – | 51 nM | 4.10 | – |
| CC1(C)SCC(=O)N[C@H](Cc2ccc(O)cc2)C(=O)N[C@@H](CCCCN)C(=O)NCC(=O)N[C@@H](CC(=O)O)C(=O)N[C@@H]1C(=O)N[C@@H](CCCNC(=N)N)C(N)=O [7/16, cyclo-S-acetyl-dTyr--Lys--Gly--Asp--Pen--Arg--NH2] ({CH2CO}-[dY]KGD[Pen]R-NH2; thioether N-5) | 500 nM and 506 nM | 53.5 nM | 120000 nM | – | cutaneous bleeding time, result in words [4]: without substantial increased cutaneous bleeding time |
| N=C(N)NCCC[C@@H]1NC(=O)[C@@H](Cc2ccc(O)cc2)NC(=O)CSC[C@@H](C(=O)N[C@@H](CCC(N)=O)C(N)=O)NC(=O)[C@H](CC(=O)O)NC(=O)CNC1=O [7/27, cyclo-S-acetyl-dTyr--Arg--Gly--Asp--Cys--Gln--NH2] ({CH2CO}-[dY]RGDCQ-NH2; thioether N-5) | 1760 nM | – | 49 nM | 0.77 and 0.93 | platelet aggregation inhibition potency, result in words [1]: did not significantly improve potency; cutaneous bleeding time, result in words [4]: did not increase cutaneous blood time |
| N=C(N)NCCC[C@@H]1NC(=O)[C@@H](Cc2ccc(O)cc2)NC(=O)CSC[C@@H](C(=O)NCCCCC(=O)O)NC(=O)[C@H](CC(=O)O)NC(=O)CNC1=O [7/28, cyclo-S-(1-5)-dTyr--Arg--Gly--Asp--Cys--X (X = aminovaleric acid)] ({CH2CO}-[dY]RGDC[Ava]-OH; thioether N-5) | – | – | 650 nM | – | IC50 ([1]; read-out: platelet aggregation inhibition IC50): 52200 nM |
| N=C(N)NCCC[C@H](NC(=O)[C@@H]1CCCC(=O)N[C@H](Cc2ccc(O)cc2)C(=O)N[C@@H](CCCNC(=N)N)C(=O)NCC(=O)N[C@@H](CC(=O)O)C(=O)N1)C(N)=O [10/19, cyclo(1-5)dTyr--Arg--Gly--Asp--L-α-aminoadipic acid-Arg--NH2] ([dY]RGD[Aad]R-NH2; lactam N-5) | 180 nM and 205 nM | 2.9 nM | 32 nM | – | – |
